Results from patent publication US11447471B2, “α,β-unsaturated amide compound” (KYOWA KIRIN CO., LTD., priority 2017, dated 2022).

Tests used:
Type in all cases: cell-based
HuH28 cells = assay: Cell growth inhibitory effect on human liver cancer cell line (cell counting kit 8, 6 days); conditions: 144 h; human liver cancer cell line HuH28, 6 days incubation
Source text: (§1) NCI-H226 cells, a human mesothelioma cell line (ATCC, CRL-5826), NCI-H322 cells, a human lung cancer cell line (the European Collection of Authenticated Cell Cultures, 95111734), OUTOKO cells, a human ovarian cancer cell line (JCRB cell bank, KRB1048) and […] were each subcultured by keeping the cell density under 80% in a RPMI1640 culture medium with 10% fetal bovine serum (FBS). NCI-H226 cells, NCI-H322 cells and SSP-25 cells were each suspended in the RPMI1640 culture medium mentioned above, and plated to a 96-well flat-bottom plate at 500 cells/well in each well, and incubated at 37° C. in an incubator with 5% CO2 for one day. After the incubation, the evaluation of cell growth inhibitory activity was started. OVTOKO cells were suspended in the RPMI1640 culture medium mentioned above, and plated to a 96-well flat-bottom plate at 250 cells/well in each well, and incubated it at 37° C. in an incubator with 5% CO2 for one day. After the incubation, the evaluation of the cell growth inhibitory activity was started. The next day, a test compound was serially diluted to 5 times of its final concentration in the RPM11640 culture medium mentioned above, and the diluted solution was added to each well. In this case, the final concentration of DMSO in each well was adjusted to 0.1%. After the test compound was added, cells were incubated at 37° C. in an incubator with 5% CO2 for 6 days. At the addition of the test compound and 6 days after the addition, the cell counting measurement was performed using a cell counting kit 8 (made by DOJINDO) according to a protocol equivalent to DOJINDO's recommendation. A reagent contained in the kit was added to each plate and color reaction was performed for 2 or 3 hours at 37° C. in an incubator with 5% CO2. After the reaction, an absorbance at wavelength of 450 nm was measured using a microplate reader. A growth inhibition rate was calculated according to the following formula, from which the concentration of a test compound at which cell growth was inhibited by 50% (GI50 value) was determined.

NCI-H226 cells = assay: Cell growth inhibitory effect on human mesothelioma cell line (cell counting kit 8, 6 days); conditions: NCI-H226, 144 h
Source text: as §1

OVTOKO cells = assay: Cell growth inhibitory effect on human ovarian cancer cell line (cell counting kit 8, 6 days); conditions: 144 h, 6 days incubation
In short: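 Cells in RPMI1640 with 10% FBS plated at 500 cells/well (OVTOKO 250/well) and cultured one day at 37° C, 5% CO2. Serially diluted compound added (final DMSO 0.1%) for 6 days; viable cells measured at addition and day 6 with CCK-8, absorbance 450 nm. GI50 derived from growth inhibition rate.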

NCI-H322 cells = assay: Cell growth inhibitory effect on human lung cancer cell line (cell counting kit 8, 6 days); conditions: 144 h; human lung cancer cell line NCI-H322, 6 days incubation
Source text: as §1

GI50 (HuH28 cells) | GI50 (NCI-H226 cells) | GI50 (OVTOKO cells) | GI50 (NCI-H322 cells) | Compound
< 3 µM | < 0.1 µM | ≤ 3 µM | < 1 µM | C=CC(=O)NC1CCOc2c1ccc(Oc1ccc(C(F)(F)F)nc1)c2OC (stereo not shown) [Compound 163, N-(8-Methoxy-7-[{6-(trifluoromethyl)pyridin-3-yl}oxy]chroman-4-yl)acrylamide]
< 3 µM | 0.1 to 1 µM | ≤ 3 µM | < 1 µM | C=CC(=O)Nc1cncc(OCC2CCC(F)(F)CC2)c1 [Compound 192]
< 3 µM | < 0.1 µM | ≤ 3 µM | < 1 µM | C=CC(=O)NCc1ccc(Oc2ccc(C(F)(F)F)cc2)c2nc(C)oc12 [Compound 243, N-([2-Methyl-4-{4-(trifluoromethyl)phenoxy}benzo[d]oxazol-7-yl]methyl) acrylamide]
< 3 µM | < 0.1 µM | ≤ 3 µM | < 1 µM | C=CC(=O)NCc1ccc(Oc2ccc(C(F)(F)F)cc2)c2nc(CC)oc12 [Compound 244, N-([2-Ethyl-4-{4-(trifluoromethyl)phenoxy}benzo[d]oxazol-7-yl]methyl)acrylamide]
< 3 µM | < 0.1 µM | ≤ 3 µM | < 1 µM | C=CC(=O)NCc1ccc(Oc2ccc(C(F)(F)F)cc2)c2ncoc12 [Compound 247, N-([4-{4-(Trifluoromethyl)phenoxy}benzo[d]oxazol-7-yl]methyl)acrylamide]
< 3 µM | < 0.1 µM | ≤ 3 µM | < 1 µM | C=CC(=O)NCc1ccc(Oc2ccc(C(F)(F)F)nc2)c2nc(C)oc12 [Compound 249, N-{(2-Methyl-4-[{6-(trifluoromethyl)pyridin-3-yl}oxy]benzo[d]oxazol-7-yl)methyl}acrylamide]
< 3 µM | < 0.1 µM | ≤ 3 µM | < 1 µM | C=CC(=O)NCc1ccc(Oc2ccc(C(F)(F)F)cn2)c2nc(C)oc12 [Compound 250, N-{(2-Methyl-4-[{5-(trifluoromethyl)pyridin-2-yl}oxy]benzo[d]oxazol-7-yl)methyl}acrylamide]
< 3 µM | < 0.1 µM | ≤ 3 µM | < 1 µM | C=CC(=O)NCc1ccc(Oc2ccc(C(F)(F)F)cc2)c2nc(C)sc12 [Compound 256, N-([2-Methyl-4-{4-(trifluoromethyl)phenoxy}benzo[d]thiazol-7-yl]methyl)acrylamide]
< 3 µM | 0.1 to 1 µM | ≤ 3 µM | < 1 µM | C=CC(=O)NCc1ccc(C(O)c2ccc(C(F)(F)F)cc2)c2nc(C)oc12 (stereo not shown) [Compound 268, N-{(4-[Hydroxy{4-(trifluoromethyl)phenyl}methyl]-2-methylbenzo[d]oxazol-7-yl)methyl}acrylamide]
< 3 µM | 0.1 to 1 µM | ≤ 3 µM | < 1 µM | C=CC(=O)NCc1ccc(N(C)c2ccc(C(F)(F)F)cc2)c2nc(C)oc12 [Compound 269, N-{(2-Methyl-4-[methyl{4-(trifluoromethyl)phenyl}amino]benzo[d]oxazol-7-yl)methyl}acrylamide]
< 3 µM | < 0.1 µM | ≤ 3 µM | < 1 µM | C=CC(=O)NCc1ccc(Nc2ccc(C(F)(F)F)cc2)c2nc(C)oc12 [Compound 270, N-{(2-Methyl-4-[{4-(trifluoromethyl)phenyl}amino]benzo[d]oxazol-7-yl)methyl}acrylamide]
< 3 µM | < 0.1 µM | ≤ 3 µM | < 1 µM | C=CC(=O)NCc1ccc(Sc2ccc(C(F)(F)F)cc2)c2nc(C)oc12 [Compound 272, N-{(2-Methyl-4-[{4-(trifluoromethyl)phenyl}thio]benzo[d]oxazol-7-yl)methyl}acrylamide]
< 3 µM | 0.1 to 1 µM | ≤ 3 µM | < 1 µM | C=CC(=O)NCc1ccc(Oc2ccc(N(C)C)cc2)c2nc(C)oc12 [Compound 275, N-([4-{4-(Dimethylamino)phenoxy}-2-methylbenzo[d]oxazol-7-yl]methyl)acrylamide]
< 3 µM | < 0.1 µM | ≤ 3 µM | < 1 µM | C=CC(=O)NCc1ccc(Oc2ccc(C(F)(F)F)c(F)c2)c2nc(C)oc12 [Compound 277, N-([4-{3-Fluoro-4-(trifluoromethyl)phenoxy}-2-methylbenzo[d]oxazol-7-yl]methyl)acrylamide]
< 3 µM | 0.1 to 1 µM | ≤ 3 µM | < 1 µM | C=CC(=O)NCc1ccc(Oc2ccc(C#N)cc2)c2nc(C)oc12 [Compound 278, N-[{4-(4-Cyanophenoxy]-2-methylbenzo[d]oxazol-7-yl}methyl)acrylamide]
< 3 µM | < 0.1 µM | ≤ 3 µM | < 1 µM | C=CC(=O)NCc1ccc(Oc2cccc(C(F)(F)F)c2)c2nc(C)oc12 [Compound 279, N-([2-Methyl-4-{3-(trifluoromethyl)phenoxy}benzo[d]oxazol-7-yl]methyl) acrylamide]
< 3 µM | < 0.1 µM | ≤ 3 µM | < 1 µM | C=CC(=O)NCc1ccc(Oc2ccc(OC)cc2)c2nc(C)oc12 [Compound 280, N-[{4-(4-Methoxyphenoxy]-2-methylbenzo[d]oxazol-7-yl}methyl)acrylamide]
< 3 µM | < 0.1 µM | ≤ 3 µM | < 1 µM | C=CC(=O)NCc1ccc(Oc2ccc(Cl)cc2)c2nc(C)oc12 [Compound 281, N-[{4-(4-Chlorophenoxy]-2-methylbenzo[d]oxazol-7-yl}methyl)acrylamide]
< 3 µM | < 0.1 µM | ≤ 3 µM | < 1 µM | C=CC(=O)NCc1ccc(OCc2ccccc2)c2nc(C)oc12 [Compound 282, N-[{4-(Benzyloxy)-2-methylbenzo[d]oxazol-7-yl}methyl]acrylamide]
< 3 µM | < 0.1 µM | ≤ 3 µM | < 1 µM | C=CC(=O)NCc1ccc(Oc2ccc(C(F)(F)F)nc2)c2oc(C)nc12 [Compound 283, N-{(2-Methyl-7-[{6-(trifluoromethyl)pyridin-3-yl}oxy]benzo[d]oxazol-4-yl)methyl}acrylamide]
< 3 µM | < 0.1 µM | ≤ 3 µM | < 1 µM | C=CC(=O)NCc1ccc(Oc2ccc(C(F)(F)F)cn2)c2oc(C)nc12 [Compound 284, N-{(2-Methyl-7-[{5-(trifluoromethyl)pyridin-2-yl}oxy]benzo[d]oxazol-4-yl)methyl}acrylamide]
< 3 µM | < 0.1 µM | ≤ 3 µM | < 1 µM | C=CC(=O)NCc1ccc(Oc2ccc(C(F)(F)F)nc2)c2nc(C)sc12 [Compound 285, N-{(2-Methyl-4-[{6-(trifluoromethyl)pyridin-3-yl}oxy]benzo[d]thiazol-7-yl)methyl}acrylamide]
< 3 µM | < 0.1 µM | ≤ 3 µM | < 1 µM | C=CC(=O)NCc1ccc(Oc2ccc(C(F)(F)F)cn2)c2nc(C)sc12 [Compound 286, N-{(2-Methyl-4-[{5-(trifluoromethyl)pyridin-2-yl}oxy]benzo[d]thiazol-7-yl)methyl}acrylamide]
< 3 µM | < 0.1 µM | ≤ 3 µM | < 1 µM | C=CC(=O)NCc1ccc(Oc2ccc(C(F)(F)F)nc2)c2sc(C)nc12 [Compound 287, N-{(2-Methyl-7-[{6-(trifluoromethyl)pyridin-3-yl}oxy]benzo[d]thiazol-4-yl)methyl}acrylamide]
< 3 µM | < 0.1 µM | ≤ 3 µM | < 1 µM | C=CC(=O)NCc1ccc(Oc2ccc(C(F)(F)F)cn2)c2sc(C)nc12 [Compound 288, N-{(2-Methyl-7-[{5-(trifluoromethyl)pyridin-2-yl}oxy]benzo[d]thiazol-4-yl)methyl}acrylamide]
